Assays:
Type in all cases: in vivo
[1] = system: Oat, Wild (wild oat, Avena fatua); assay: Test A1 preemergence, Oat, Wild
In short: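 Test compounds were formulated in a non-phytotoxic solvent mixture containing a surfactant. For preemergence, seeds sown in a loam soil–sand blend received a directed soil spray. For postemergence, potted plants in the same soil, 2 to 10 cm tall at the one- to two-leaf stage, were sprayed.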

[2] = system: blackgrass (Alopecurus myosuroides); assay: Test A1 postemergence, blackgrass; conditions: Postemergence, 0 to 100 scale (0 no effect, 100 complete control)
In short: (§1)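 Seeds were first planted into a blend of loam soil and sand and given a preemergence directed soil spray. In parallel, pots of the same soil were sown for postemergence application once plants reached 2 to 10 cm and the one- to two-leaf stage. Both used surfactant-containing non-phytotoxic solvent formulations.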

[3] = system: goosegrass (Eleusine indica); assay: Test A1 postemergence, goosegrass; conditions: for Plant response rating, Goosegrass: Postemergence; for Goosegrass plant response rating: postemergence
In short: as §1

kochia (Bassia scoparia) = assay: Test A1 postemergence, kochia; conditions: for Plant response rating, Kochia: Postemergence; for Kochia plant response rating: postemergence
In short: as §1

[4] = system: Oat, Wild (wild oat, Avena fatua); assay: Test A1 postemergence, Oat, Wild; conditions: for Plant response rating, Oat, Wild: Postemergence; for Oat, Wild plant response rating: postemergence
In short: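 Plants were grown in a loam soil/sand blend, with test chemicals formulated in a non-phytotoxic solvent mixture containing surfactant. Preemergence treatment (corn) was a directed soil spray at planting. Postemergence treatment was applied to plants 2 to 10 cm tall at the one- to two-leaf stage.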

[5] = system: Ryegrass, Italian (Italian ryegrass, Lolium multiflorum); assay: Test A1 postemergence, Ryegrass, Italian; conditions: for Plant response rating, Ryegrass, Italian: Postemergence; for Ryegrass, Italian plant response rating: postemergence
In short: as §1

[6] = system: wheat (Triticum aestivum); assay: Test A1 postemergence, wheat; conditions: for Plant response rating, Wheat: Postemergence; for Wheat plant response rating: postemergence
In short: as §1

[7] = system: barnyardgrass (Echinochloa crus-galli); assay: Test B1 flooded paddy test, barnyardgrass; conditions: 250 g ai/ha, Flood, applied to paddy water, 2-leaf stage, visually evaluated after 10 to 14 days
Source text: A dash (-) response means no test result.

[8] = 31 g ai/ha, 0 to 100 scale (0 no effect, 100 complete control)
[9] = 125 g ai/ha, 0 to 100 scale, 0 no effect, 100 complete control
[10] = 31 g ai/ha, 0 to 100 scale (0 no effect, 100 complete control), 10 days

Row | SMILES | Plant response rating, Oat, Wild [1, 8] | Plant response rating, Oat, Wild [1, 9] | Plant response rating, Blackgrass ([2]; 31 g ai/ha, 10 days) | Plant response rating, Blackgrass ([2]; 125 g ai/ha) | Plant response rating, Goosegrass [3, 10] | Plant response rating, Goosegrass ([3]; 125 g ai/ha, 0 to 100 scale) | Plant response rating, Kochia (kochia (Bassia scoparia); [10]) | Plant response rating, Kochia (kochia (Bassia scoparia); 125 g ai/ha, 0 to 100 scale) | Plant response rating, Oat, Wild [4, 10] | Plant response rating, Oat, Wild ([4]; 125 g ai/ha, 0 to 100 scale) | Plant response rating, Ryegrass, Italian [5, 10] | Plant response rating, Ryegrass, Italian ([5]; 125 g ai/ha, 0 to 100 scale) | Plant response rating, Wheat [6, 10] | Plant response rating, Wheat ([6]; 125 g ai/ha, 0 to 100 scale) | Plant response rating, Barnyardgrass (0 to 100 scale, 0 is no effect, 100 is complete control) [7] | Goosegrass plant response rating [3, 8] | Kochia plant response rating (kochia (Bassia scoparia); [8]) | Oat, Wild plant response rating [4, 8] | Ryegrass, Italian plant response rating [5, 8] | Wheat plant response rating [6, 8]
1 | Cc1c(C(=O)N2CCC(Cl)CC2)cc(N(COC(=O)C(C)(C)C)S(=O)(=O)C(F)(F)F)c(C)c1C [Compound 359] | 0 | 0 | 0 | 0 | 0 | 20 | 30 | 40 | 0 | 0 | 0 | 0 | 0 | 30 | 95 |  |  |  |  | 
2 | Cc1c(C(=O)N2CCC(F)(F)CC2)cc(N(COC(=O)C(C)(C)C)S(=O)(=O)C(F)(F)F)c(C)c1C [Compound 360] | 0 | 0 | 0 | 0 | 0 | 40 | 30 | 50 | 0 | 0 | 0 | 0 | 0 | 0 | 95 |  |  |  |  | 
3 | Cc1cc(C)c(N(COC(=O)C(C)(C)C)S(=O)(=O)C(F)(F)F)cc1C(=O)N1CCOCC1 [Compound 362] | 0 | 30 | 0 | 50 | 40 | 90 | 50 | 80 | 0 | 10 | 30 | 90 | 40 | 60 | 95 |  |  |  |  | 
4 | CCOC(=O)N(c1cc(C(=O)N2CCOCC2)c(C)cc1C)S(=O)(=O)C(F)(F)F [Compound 363] | 30 | 70 | 0 | 50 | 30 | 90 | 50 | 70 | 20 | 50 | 20 | 90 | 40 | 60 | 50 |  |  |  |  | 
5 | Cc1cc(C)c(N(COC(=O)C(C)(C)C)S(=O)(=O)C(F)(F)F)cc1C(=O)N1CCC(c2ccccc2)CC1 [Compound 364] | 0 | 0 | 0 | 0 | 0 | 0 | 0 | 30 | 0 | 0 | 0 | 0 | 0 | 0 | 0 |  |  |  |  | 
6 | CCOC(=O)N(c1cc(C(=O)N2CCC(c3ccccc3)CC2)c(C)cc1C)S(=O)(=O)C(F)(F)F [Compound 365] | 0 | 0 | 0 | 30 | 0 | 0 | 10 | 40 | 0 | 0 | 0 | 10 | 0 | 20 | 15 |  |  |  |  | 
7 | Cc1c(NS(=O)(=O)C(F)(F)F)cc(C(=O)N2CCC(C)CC2)c(C)c1C [Compound 366] | 10 | 30 | 0 | 0 |  | 80 |  | 30 |  | 0 |  | 20 |  | 20 | 15 | 0 | 0 | 0 | 0 | 0
8 | COC1CCN(C(=O)c2cc(NS(=O)(=O)C(F)(F)F)c(C)c(C)c2C)CC1 [Compound 367] | 20 | 30 | 0 | 0 |  | 70 |  | 30 |  | 0 |  | 0 |  | 20 | 60 | 10 | 20 | 0 | 0 | 0
9 | CCC1CC(c2cc(N(COC(=O)C(C)(C)C)S(=O)(=O)C(F)(F)F)c(C)cc2C)=NO1 (stereo not drawn) [Compound 376] | 0 | 10 | 0 | 50 |  | 50 |  | 50 |  | 0 |  | 0 |  | 40 | 95 | 0 | 0 | 0 | 0 | 10

Source: patent US20230278972A1, “SUBSTITUTED HALOALKYL SULFONANILIDE HERBICIDES” (FMC Corporation, priority 2020, published 2023)
